Data on two compounds can be found in ChEMBL document CHEMBL5608207, “Development of narrow-spectrum topoisomerase-targeting antibacterials against mycobacteria” (Eur J Med Chem, 2024).

Values after ≈ are worked out from the molar mass of the structure shown. Active and inactive are the calls of the source.

The nature of data set [1]: Inhibition of Mycobacterium tuberculosis DNA gyrase B.
The test system of data set [2] is Acinetobacter baumannii. As to the kind of experiment: Antibacterial activity against Acinetobacter baumannii. The data set is classed as functional.
For data set [3], the system named is Mycobacterium tuberculosis. The data set can be described thus: Antimycobacterial activity against GFP-expressing Mycobacterium tuberculosis H37Rv infected in PMA-treated THP-1 cells assessed as bacterial viability at 10 uM pre-infected for 3 hrs prior to gentamycin addition for 1 hr followed by washout and compound addition measured after 4 days by fluorescence microscopic analysis (reference value: 100%). The data set is classed as functional. The conditions noted are these: time 4 day.

In data set [4] the test system is Pseudomonas aeruginosa. The data set can be described thus: Antibacterial activity against Pseudomonas aeruginosa. The class given is functional.
The subject of data set [5] is Mycobacterium tuberculosis. The data set can be described thus: Antimycobacterial activity against Mycobacterium tuberculosis H37Rv ATCC 25618 assessed as reduction in viability at 5 uM incubated for 6 days by resazurin reduction microplate assay. The conditions noted are these: time 6 day. The class given is functional. In general terms: The colour change of resazurin is a common sign of viable cells or microbes.

The subject of data set [6] is THP-1. The data set can be described thus: Cytotoxicity against replicating human THP-1 cells. The data set is classed as toxicity, cell-based.
For data set [7], the system named is Mycobacterium tuberculosis. As to the kind of experiment: Antimycobacterial activity against GFP-expressing Mycobacterium tuberculosis H37Rv infected in PMA-treated THP-1 cells assessed as number of viable macrophages at 10 uM pre-infected for 3 hrs prior to gentamycin addition for 1 hr followed by washout and compound addition measured after 4 days by fluorescence microscopic analysis. The class given is functional. Conditions: time 4.0 day.

The subject of data set [8] is THP-1. As to the kind of experiment: Cytotoxicity against human THP-1 cells pretreated with PMA for 48 hrs followed by washout and compound addition for 5 days by resazurin sodium salt method. The class given is toxicity, cell-based. The conditions noted are these: thp-1, 120 h, time 5 day.
Data set [9] can be described thus: Protein binding in mouse plasma assessed as free fraction at 10 uM incubated for 4 hrs by rapid equilibrium dialysis based LC-MS/MS method. The class given is ADME, cell-free. (Equilibrium dialysis compares concentrations on both sides of a semipermeable membrane.)
Data set [10] in a line: Acute toxicity in zebrafish embryo assessed as effect on embryo survival upto 5 mM measured for 4 days. Conditions: in vivo, 96 h, 5000 µM, time 4 day. Set-up: species or system Danio rerio.
A short description of data set [11]: Protein binding in human plasma assessed as free fraction at 10 uM incubated for 4 hrs by rapid equilibrium dialysis based LC-MS/MS method. The class given is ADME, cell-free.
Data set [12] is described as follows: Acute toxicity in zebrafish embryo assessed as change in behavior upto 5 mM measured for 4 days. Conditions: in vivo, 96 h, 5000 µM, time 4 day. Set-up: species or system Danio rerio.
The subject of data set [13] is Mycobacterium tuberculosis. The data set can be described thus: Antimycobacterial activity against Mycobacterium tuberculosis H37Rv ATCC 25618 assessed as reduction in viability incubated for 6 days by resazurin reduction microplate assay. The class given is functional. Conditions: H37Rv ATCC 25618, 144 h, time 6 day.
The test system of data set [14] is Escherichia coli. The data set can be described thus: Antibacterial activity against Escherichia coli ATCC 25922 harboring deltaTolC mutant incubated for 18 hrs by serial broth microdilution method. The class given is functional. On the technique in general: Broth dilution looks for growth in wells or tubes with falling amounts of substance.
Data set [15] relates to Escherichia coli. The data set can be described thus: Antibacterial activity against Escherichia coli ATCC 25922 incubated for 18 hrs by serial broth microdilution method. The class given is functional.
In data set [16] the test system is Mycolicibacterium smegmatis. As to the kind of experiment: Antimycobacterial activity against Mycobacterium smegmatis MC2 incubated for 2 days by resazurin reduction microplate assay. The class given is functional. Conditions: MC2, 48 h, time 2 day.
Data set [17] in a line: Kinetic solubility of compound in PBS at 100 uM incubated for 20 hrs in shaker by LC-MS/MS analysis. The class given is physicochemical. Conditions: read-out: Kinetic_solubility.
In data set [18] the test system is Mycobacterium tuberculosis. As to the kind of experiment: Antimycobacterial activity against GFP-expressing Mycobacterium tuberculosis H37Rv infected in PMA-treated THP-1 cells assessed as bacterial viability pre-infected for 3 hrs prior to gentamycin addition for 1 hr followed by washout and compound addition measured after 4 days by fluorescence microscopic analysis. The class given is functional, organism-based. Conditions: dose 1-30 µM, time 4.0 day.

The subject of a further data set is Klebsiella pneumoniae. As to the kind of experiment: Antibacterial activity against Klebsiella pneumoniae ATCC10031 incubated for 18 hrs by serial broth microdilution method. The data set is classed as functional.
The subject of the next data set is Staphylococcus aureus. The data set can be described thus: Antibacterial activity against Staphylococcus aureus ATCC 29213 incubated for 18 hrs by serial broth microdilution method. The data set is classed as functional.
Data set [19] deals with Mycobacteroides abscessus. As to the kind of experiment: Antimycobacterial activity against Mycobacterium abscessus RIVM incubated for 1 day by resazurin reduction microplate assay. The class given is functional. Conditions: 24 h.
Data set [20] has as its system Pseudomonas aeruginosa. The data set can be described thus: Antibacterial activity against Pseudomonas aeruginosa ATCC 27853 incubated for 18 hrs by serial broth microdilution method. The class given is functional.
For a further data set, the system named is Anaerostipes hadrus. As to the kind of experiment: Antibacterial activity against Anaerostipes hadrus DSM 3319 measured at 15 mins interval for 24 hrs by broth microdilution method. The class given is functional.
Data set [21] has as its system THP-1. As to the kind of experiment: Cytotoxicity against replicating human THP-1 cells upto 40 uM. The conditions noted are these: thp-1, 40 µM. The data set is classed as toxicity, cell-based.
Data set [22] relates to Bacteroides thetaiotaomicron. The data set can be described thus: Antibacterial activity against Bacteroides thetaiotaomicron DSM 2079 measured at 15 mins interval for 24 hrs by broth microdilution method. The class given is functional.
The test system of the next data set is Enterobacter cloacae. As to the kind of experiment: Antibacterial activity against Enterobacter cloacae ATCC13047 incubated for 18 hrs by serial broth microdilution method. The data set is classed as functional.
The subject of data set [23] is Mycobacterium tuberculosis. The data set can be described thus: Antimycobacterial activity against GFP-expressing Mycobacterium tuberculosis H37Rv infected in PMA-treated THP-1 cells assessed as increase in number of surviving macrophages at 1 to 30 uM pre-infected for 3 hrs prior to gentamycin addition for 1 hr followed by washout and compound addition measured after 4 days by fluorescence microscopic analysis. The conditions noted are these: dose 1-30 µM, time 4.0 day. The class given is functional, organism-based.

The subject of data set [24] is Acinetobacter baumannii. The data set can be described thus: Antibacterial activity against Acinetobacter baumannii ATCC17978 incubated for 18 hrs by serial broth microdilution method. The data set is classed as functional.
The subject of a further data set is Segatella copri. As to the kind of experiment: Antibacterial activity against Prevotella copri DSM 18205 measured at 15 mins interval for 24 hrs by broth microdilution method. The data set is classed as functional.
Data set [25] relates to THP-1. As to the kind of experiment: Cytotoxicity against human THP-1 cells assessed as reduction in viability at 40 uM pretreated with PMA for 48 hrs followed by washout and compound addition for 5 days by resazurin sodium salt method. The class given is toxicity, cell-based. The conditions noted are these: thp-1, 120 h, time 5 day.
Data set [26] is described as follows: Acute toxicity in zebrafish embryo assessed as effect on embryo development upto 5 mM measured for 4 days. Conditions: in vivo, 96 h, 5000 µM, time 4 day. Set-up: species or system Danio rerio.

For the compound `Cc1[nH]c(C(=O)Nc2nc3ccc(C(=O)O)cc3s2)c(Cl)c1Cl`, the IC50 in data set [1] is 24.5 nM. The MIC in the data set with Acinetobacter baumannii [2] came to 4 µg/mL (≈ 10.8 µM); against Pseudomonas aeruginosa [4] it was 8 µg/mL (≈ 21.6 µM). In addition, the Activity in data set [3] was 14%; in data set [5], 57%; with THP-1 [6], “Non-Toxic”; with THP-1 [8] it was “Non-Toxic”. Besides, the outcome in data set [7] was inactive.

As for `Cc1[nH]c(C(=O)Nc2nc3c(OC(C)CN(C)C)cc(C(=O)O)cc3s2)c(Cl)c1Cl` (stereo unspecified), the fraction unbound at 4 h, 10 µM in [9] is 0.047; in [11], 0.029. Besides, the Activity entry in [10] is “Non-Toxic”; in data set [12], “Non-Toxic”; in data set [18] it was “Dose-Dependent Effect”; in the data set on THP-1 [21] it was “Non-Toxic”; with THP-1 [25], 34%; in data set [26] it was “Non-Toxic”. The MIC90 in [13] is 2.5 µM (≈ 1.18 µg/mL); against Escherichia coli [14], 2 µM (≈ 0.943 µg/mL); in the data set on Escherichia coli [15], more than 135 µM; in data set [16] it was 0.63 µM (≈ 0.297 µg/mL); with Klebsiella pneumoniae it was 8 µM (≈ 3.77 µg/mL); against Staphylococcus aureus, more than 135 µM. The MIC90 in data set [19] was 0.63 µM (≈ 0.297 µg/mL); in the data set with Pseudomonas aeruginosa [20], more than 135 µM; with Enterobacter cloacae, more than 135 µM; with Acinetobacter baumannii [24] it was more than 135 µM. Besides, the solubility kinetic at 20 h, 100 µM in [17] was 55 µM (≈ 25.9 µg/mL). The minimum inhibitory concentration (MIC) (in the data set on Anaerostipes hadrus; in data set [22]; against Segatella copri) was more than 20 µM in each case. For the same compound, in [23], the outcome was inactive.

Usually IC50 stands for the midpoint of a concentration-inhibition curve. A low value points to greater potency. One may read the MIC as the smallest concentration in the dilution series that meets the test's criterion for growth inhibition. What is called fraction unbound is the share of the substance not bound to proteins or other matrix. What is called MIC90 is an inhibitory concentration at the 90% level, which refers to growth in some studies and to a panel of isolates in others.
